Measurements as given in patent US20020044933A1, “Inhibition of intimal hyperplasia using antibodies to PDGF receptors” (priority 1993, published 2002).

Experiments:
[1] = tested on: baboon smooth muscle cells; test: Inhibition of PDGF mitogenic activity on baboon smooth muscle cells by non-peptidic antagonists; format: cell-based
rat smooth muscle cells = test: Inhibition of PDGF-BB binding to rat smooth muscle cells

| SMILES | inhibition of PDGF-BB mitogenic activity on baboon smooth muscle cells [1] | inhibition of binding of PDGF-BB to rat smooth muscle cells (rat smooth muscle cells) | inhibition of PDGF mitogenic activity on baboon smooth muscle cells [1] | inhibition of PDGF mitogenic activity on baboon smooth muscle cells in the presence of heparin ([1]; with heparin) |
| --- | --- | --- | --- | --- |
| O=C(/C=C/c1ccccc1)OC1C=CC2COC(=O)C2C1C(=O)O (stereo not shown) [92-0825] | inhibit PDGF-BB mitogenic activity | inhibit binding | – | – |
| CC1CCCC=CC2CC(O)CC2C(O)C=CC(=O)O1 (stereo not shown) [Brefeldin A, 1,6,7,8,9,11a,12,13,14,14a-Decahydro-1,13-dihydroxy-6-methyl-4H-cyclopent[f]oxacyclotridecin-4-one] | – | – | inhibit | enhanced |
